Results taken from US9487749B2 (priority 2009, dated 2016).

Key:
Aspergillus niger = experiment: USP Antimicrobial Effectiveness Test (AET) of MSM supplemented TSB; format: cell-based; design: key to AET test results (microorganism count): Colonies too numerous to count (TNTC); conditions: for Log Reduction from Initial Microorganism Inoculum: 1:10 dilution of MSM, 14 Days, 28 Days; for AET test results (microorganism count): 48 hrs
Excerpt: (§1) Compounds or formulated products having antimicrobial activity may be evaluated with the United States Pharmacopeia (USP) Antimicrobial Effectiveness Test (AET). The AET involves the addition of specified microorganisms (Candida albicans, Aspergillus niger, Escherichia coli, Pseudomonas aeruginosa and Staphylococcus aureus) directly to a test product at relatively high concentrations to simulate contamination. The product is held for one month, with weekly analysis of microorganism levels. […] For yeast and mold, no increase from the initial inoculums level is permitted. […] Inoculations were made using Candida albicans, Aspergillus niger, Escherichia coli, Pseudomonas aeruginosa and Staphylococcus aureus. Tryptic soy broth (TSB) was used as the culturing media. […] The inoculated media was held for one month, during which time the added microorganisms were enumerated weekly to determine if they were growing, dying off, or remaining near the initial inoculation level. […] The acceptance criteria for antimicrobial effectiveness are described in detail in the USP, herein incorporated by reference.

Candida albicans = experiment: as above; format: cell-based; design: key to AET test results (microorganism count): Colonies too numerous to count (TNTC); conditions: for Log Reduction from Initial Microorganism Inoculum: 1:10 dilution of MSM, 14 Days, 28 Days; for AET test results (microorganism count): 48 hrs
Excerpt: as §1

Staphylococcus aureus = experiment: as above; format: cell-based; design: key to AET test results (microorganism count): Colonies too numerous to count (TNTC); conditions: for Log Reduction from Initial Microorganism Inoculum: 1:10 dilution of MSM, 14 Days, 28 Days; for AET test results (microorganism count): 48 hrs
Excerpt: as §1

E. coli = E. coli log growth in MSM-lactose broth with or without DMSO; format: cell-based, Escherichia coli
Experimental: Lactose broth, free of both NaCl and of proteins, was used as the media in this experiment. […] Each media composition was initially inoculated with 6.75×10^6 cfu/mL of E. coli. Cultures were incubated at 25° C. for seven days. Aliquots of each culture were taken after 24 hours of culturing and at the end of seven days in culture. Aliquots were serially diluted (with Modified Letheen diluent) and plated on trypto-soy agar plates.

Bacillus coagulans = experiment: Viability and colony formation of Bacillus coagulans supplemented with MSM (population count, weight, percent transmittance); format: cell-based; conditions: for Population Count Average / Population Weight Average: 72 hours; for Population Weight Average: washed pellet; for percent transmittance: 25×25 mm agar section, 546 nm
Experimental: At the end of the 72 hours, the broth was measured for colony formation, with photographic documentation of colony formation on tryptic soy agar. […] For the Bacillus coagulans, the organism was isolated and grown for 24 hours before harvesting. […] One milliliter of Dilution B was used to inoculate the 30 mL of TSB concentrations stated above. […] Each dilution for the microorganism was plated in triplicate for each sample. To capture the appropriate colonies per milliliter, the microorganism was plated at six different dilutions. […] The population count was based on the dilution of the tryptic soy broth after 72 hours and inoculation on to tryptic soy agar plates. The plates were incubated for 48 hours and enumerated. The tryptic soy broth after 72 hours was centrifuged down in a conical vial. The supernatant was pulled off and the pellet was washed. The centrifuging and washing was repeated three times. At the end of the third wash, the vials with pellet were weighed. Each vial was weighed empty and recorded. The corresponding vial weight was then subtracted from the ending weight of the pellet and vial, to get the weight of the Bacillus coagulans population. […] The slides were sealed to prevent the agar plug from slipping. The wavelength was set at 546 nm, and two empty slides were used as a blank. […] The weights indicated a heavier growth or a colony that was larger in size adding to the weight of the biomass. The percent transmittance was used to indicate Bacillus coagulans colony size in which a decrease in transmittance indicates an increase in colony size as the colony inhibited light from passing through the agar. […] It was observed that the percent transmittance result may be influenced by the sample size, sample location and agar variables.

[1] = system: Acidophilus plus Bifidus milk microorganisms; experiment: Growth in Acidophilus plus Bifidus milk fortified with MSM; format: cell-based; conditions: A/B milk
Excerpt: 31, 2013. […] The Acidophilus milk was low fat (Darigold).

[2] = system: MDCK cells (ATCC # CCL-34); experiment: Cytotoxicity of MSM on host cells; conditions: for Test Product Cytotoxicity: MDCK
Experimental: Determination of test product cytotoxicity. The highest non-cytotoxic concentration of the test product was determined prior to the test.
B. Toxicity Control for Pre-Treatment Test.

Structure (SMILES): CS(C)(=O)=O [MSM, Methylsulfonylmethane]
- Log Reduction from Initial Microorganism Inoculum (Aspergillus niger; after 14 days): 4.3 log
- Log Reduction from Initial Microorganism Inoculum (Aspergillus niger; after 28 days): 4.5 log
- AET test results (microorganism count) (Aspergillus niger; 1:100 dilution of MSM in TSB): TNTC*
- AET test results (microorganism count) (Aspergillus niger; 1:1000 dilution of MSM in TSB): TNTC*
- Log Reduction from Initial Microorganism Inoculum (Candida albicans; after 14 days): 4.2 log
- Log Reduction from Initial Microorganism Inoculum (Candida albicans; after 28 days): 4.4 log
- AET test results (microorganism count) (Candida albicans; 1:100 dilution of MSM in TSB): TNTC
- AET test results (microorganism count) (Candida albicans; 1:1000 dilution of MSM in TSB): TNTC
- Log Reduction from Initial Microorganism Inoculum (Staphylococcus aureus; after 14 days): 4.5 log
- Log Reduction from Initial Microorganism Inoculum (Staphylococcus aureus; after 28 days): 4.7 log
- AET test results (microorganism count) (Staphylococcus aureus; 1:100 dilution of MSM in TSB): TNTC
- AET test results (microorganism count) (Staphylococcus aureus; 1:1000 dilution of MSM in TSB): TNTC
- reduction of bacterial growth (E. coli; 11% MSM, 24 hours (maximum)): about 2.2 logs
- reduction of bacterial growth (E. coli; 16% MSM, 24 hours): about 1 log
- Population Count Average (Bacillus coagulans; 1.0% MSM in TSB): 1.01 × 10^11
- Population Weight Average (Bacillus coagulans; 1.0% MSM in TSB): 0.1363
- percent transmittance (Bacillus coagulans; 1.0% MSM): 51.5%
- Population Count Average (Bacillus coagulans; 5.0% MSM in TSB): 2.8 × 10^11
- Population Weight Average (Bacillus coagulans; 5.0% MSM in TSB): 0.1260
- percent transmittance (Bacillus coagulans; 5.0% MSM): 45.6%
- Population Count Average (Bacillus coagulans; […] MSM in TSB): 3.3 × 10^11
- Population Weight Average (Bacillus coagulans; […] MSM in TSB): 0.9828
- percent transmittance (Bacillus coagulans; […] MSM): 49.8%
- Log Growth of Lactobacillus acidophilus in Milk fortified with MSM ([1]; Day 7): 10.42 log
- Log Growth of Lactobacillus acidophilus in Milk fortified with MSM ([1]; Day 21): 5.37 log
- Log Growth of Lactobacillus acidophilus in Milk fortified with MSM ([1]; Day 28): 3.94 log
- Log Growth of Lactobacillus acidophilus in Milk fortified with MSM ([1]; hour 32): 8.87 log
- Log Growth of Lactobacillus acidophilus in Milk fortified with MSM ([1]; hour 48): 8.3 log
- Log Growth of Lactobacillus acidophilus in Milk fortified with MSM ([1]; hour 72): 8.45 log
- Log Growth of Lactobacillus acidophilus in Milk fortified with MSM ([1]; hour 80): 9.82 log
- reduction of viability (Streptococcus Pneumonia): approximately 5%
- Test Product Cytotoxicity ([2]; 0.5%): 00
- Test Product Cytotoxicity ([2]; 1%): 00
- Test Product Cytotoxicity ([2]; 2%): 00
- Test Product Cytotoxicity ([2]; 3%): 00
- Test Product Cytotoxicity ([2]; 4%): 00
- Test Product Cytotoxicity ([2]; 5%): 00
- cytotoxic effect ([2]; MSM concentrations 6% through 0.5%): no visible cytotoxic effect
